# In patent US20240287070A1, “FUSED HETEROCYCLIC DERIVATIVES” (Janssen Sciences Ireland Unlimited Company, priority 2021, published 2024):
# Columns and labels:
# [1] = tested on: HBV (HepG2.117 cell line, inducibly HBV producing); experiment: Anti-HBV activity, intracellular HBV DNA by real-time PCR in HepG2.117 cell line; format: cell-based, hepatitis B virus; conditions: HepG2.117 cells, 3 days of treatment
# How it was run: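 First, HBV replication is induced in HepG2.117 cells by doxycycline absence. Next, serially diluted compound is added for 3 days. Finally, intracellular HBV DNA is quantified by HBV-specific real-time PCR.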
# [2] = Cytotoxicity, ATPlite Luminescence Assay; format: cell-based, human; conditions: human, HepG2 or HepG2.117 cells, 3-days incubation unless marked with *
# How it was run: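 Compounds were added to cells and incubated 3 or 4 days. ATP content was then measured by luminescence to gauge cell viability.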
# [3] = Human liver microsome stability; format: in vitro ADME; conditions: 1 μM compound, NADPH 1 mM, 37° C., 0-60 min; for HLM Metabolism t1/2: pooled human liver microsomes 0.5 mg/mL; for half-life at 1 μM: human, pooled human liver microsomes, pH 7.4, pooled human liver microsomes 0.5 mg/mL, read-out: HLM Metabolism t1/2
# How it was run: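 Half-life came from elimination rate constant (negative slope of ln compound/internal standard area ratio over time), measured by cassette LC-MS after acetonitrile quench. Human liver microsome reactions, one replicate per compound, were initiated with NADPH (1 mM final) and sampled at six points up to 60 min.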
# [4] = Hepatitis B virus, HepG2.117, 72 h
compound,measurement,setting,value
"CC(c1ccn(C(C)C)c(=O)c1)N1C[C@@H](C)n2nc3c(c2C1=O)CN(C(=O)c1ccc(Cl)c(C(F)(F)F)c1)[C@H](C)C3 (single isomer, unassigned) [Compound 47A, (3R,7R)-2-(4-chloro-3-(trifluoromethyl)benzoyl)-9-((R*)-1-(1-isopropyl-2-oxo-1,2-dihydropyridin-4-yl)ethyl)-3,7-dimethyl-1,2,3,4,8,9-hexahydropyrido[4′,3′:3,4]pyrazolo[1,5-a]pyrazin-10(7H)-one]",EC50,[1],0.068 µM
same,CC50 at 3 days,[2],> 50 µM
same,HLM Metabolism t1/2,[3],0.888 h
"CC(c1ccnc(Cl)c1)N1C[C@@H](C)n2nc3c(c2C1=O)CN(C(=O)c1ccc(Cl)c(Cl)c1)[C@H](C)C3 (single isomer, unassigned) [Compound 31A, (3R,7R)-9-((R*)-1-(2-chloropyridin-4-yl)ethyl)-2-(3,4-dichlorobenzoyl)-3,7-dimethyl-1,2,3,4,8,9-hexahydropyrido[4′,3′:3,4]pyrazolo[1,5-a]pyrazin-10(7H)-one]",EC50,[1],0.051 µM
same,CC50 at 3 days,[2],31.5 µM
same,half-life at 1 μM,[3],1.9 h
"CC(c1ccccn1)N1C[C@@H](C)n2nc3c(c2C1=O)CN(C(=O)c1ccc(Cl)c(Cl)c1)[C@H](C)C3 (single isomer, unassigned) [Compound 65A, (3R,7R)-2-(3,4-dichlorobenzoyl)-3,7-dimethyl-9-((R*)-1-(pyridin-2-yl)ethyl)-1,2,3,4,8,9-hexahydropyrido[4′,3′:3,4]pyrazolo[1,5-a]pyrazin-10(7H)-one]",EC50,[1]; [4],0.034 µM
same,CC50 at 3 days,[2],> 50 µM
same,half-life at 1 μM,[3],2.53 h
"Cc1ncc(C(C)N2C[C@@H](C)n3nc4c(c3C2=O)CN(C(=O)c2ccc(Cl)c(Cl)c2)[C@H](C)C4)cn1 (single isomer, unassigned) [Compound 4A, (3R,7R)-2-(3,4-dichlorobenzoyl)-3,7-dimethyl-9-((R*)-1-(2-methylpyrimidin-5-yl)ethyl)-1,2,3,4,8,9-hexahydropyrido[4′,3′:3,4]pyrazolo[1,5-a]pyrazin-10(7H)-one]",EC50,[1],0.28 µM
same,CC50 at 3 days,[2],> 50 µM
same,half-life at 1 μM,[3],> 3 h
"C[C@@H]1Cc2nn3c(c2CN1C(=O)c1ccc(Cl)c(Cl)c1)C(=O)N([C@@H](C)c1ccc([S@](C)(=N)=O)cc1)C[C@H]3C (relative stereo) [Compound 18C, (3R,7R)-2-(3,4-dichlorobenzoyl)-3,7-dimethyl-9-((S*)-1-(4-((R*)—S-methylsulfonimidoyl)phenyl)ethyl)-1,2,3,4,8,9-hexahydropyrido[4′,3′:3,4]pyrazolo[1,5-a]pyrazin-10(7H)-one]",EC50,[1]; [4],0.03 µM
same,CC50 at 3 days,[2],> 50 µM
same,half-life at 1 μM,[3],> 3 h
"CC(c1cc(F)c(=O)n(C2CC2)c1)N1C[C@@H](C)n2nc3c(c2C1=O)CN(C(=O)c1ccc(Cl)c(Cl)c1)[C@H](C)C3 (single isomer, unassigned) [Compound 46A, (3R,7R)-9-((R*)-1-(1-cyclopropyl-5-fluoro-6-oxo-1,6-dihydropyridin-3-yl)ethyl)-2-(3,4-dichlorobenzoyl)-3,7-dimethyl-1,2,3,4,8,9-hexahydropyrido[4′,3′:3,4]pyrazolo[1,5-a]pyrazin-10(7H)-one]",EC50,[1],0.31 µM
same,CC50 at 3 days,[2],> 50 µM
same,half-life at 1 μM,[3],> 3 h
"CC(c1cc(F)ccn1)N1C[C@@H](C)n2nc3c(c2C1=O)CN(C(=O)c1ccc(Cl)c(Cl)c1)[C@H](C)C3 (single isomer, unassigned) [Compound 32A]",EC50,[1],0.016 µM
same,CC50 at 3 days,[2],> 50 µM
same,half-life at 1 μM,[3],1.68 h
"C[C@@H]1Cc2nn3c(c2CN1C(=O)c1ccc(Cl)c(C#N)c1)C(=O)N([C@@H](C)c1ccc(OC(F)F)cc1)C[C@@H]3C (relative stereo) [Compound 1B, 2-Chloro-5-((3R,7S*)-9-((S*)-1-(4-(difluoromethoxy)phenyl)ethyl)-3,7-dimethyl-10-oxo-1,2,3,4,7,8,9,10-octahydropyrido[4′,3′:3,4]pyrazolo[1,5-a]pyrazine-2-carbonyl)benzonitrile]",EC50,[1]; [4],1.49 µM
same,CC50 at 3 days,[2],> 50 µM
same,half-life at 1 μM,[3],0.612 h
"CC(c1ccc(C#N)cc1)N1C[C@@H](C)n2nc3c(c2C1=O)CN(C(=O)c1ccc(Cl)c(Cl)c1)[C@H](C)C3 (single isomer, unassigned) [Compound 66A, 4-((R*)-1-((3R,7R)-2-(3,4-dichlorobenzoyl)-3,7-dimethyl-10-oxo-1,3,4,7,8,10-hexahydropyrido[4′,3′:3,4]pyrazolo[1,5-a]pyrazin-9(2H)-yl)ethyl)benzonitrile]",EC50,[1],0.037 µM
same,CC50 at 3 days,[2],> 26.2 µM
same,half-life at 1 μM,[3],> 3 h
"CC(c1ccn(CC(C)(C)O)c(=O)c1)N1C[C@@H](C)n2nc3c(c2C1=O)CN(C(=O)c1ccc(Cl)c(C(F)(F)F)c1)[C@H](C)C3 (single isomer, unassigned) [Compound 64A, (3R,7R)-2-(4-chloro-3-(trifluoromethyl)benzoyl)-9-((R*)-1-(1-(2-hydroxy-2-methylpropyl)-2-oxo-1,2-dihydropyridin-4-yl)ethyl)-3,7-dimethyl-1,2,3,4,8,9-hexahydropyrido[4′,3′:3,4]pyrazolo[1,5-a]pyrazin-10(7H)-one]",EC50,[1],0.039 µM
same,CC50 at 3 days,[2],> 50 µM
same,half-life at 1 μM,[3],1.82 h
"CC(c1ccc(N2CCCS2(=O)=O)nc1)N1C[C@@H](C)n2nc3c(c2C1=O)CN(C(=O)c1ccc(Cl)c(C(F)(F)F)c1)[C@H](C)C3 (single isomer, unassigned) [Compound 28A, (3R,7R)-2-(4-chloro-3-(trifluoromethyl)benzoyl)-9-((R*)-1-(6-(1,1-dioxidoisothiazolidin-2-yl)pyridin-3-yl)ethyl)-3,7-dimethyl-1,2,3,4,8,9-hexahydropyrido[4′,3′: 3,4]pyrazolo[1,5-a]pyrazin-10(7H)-one]",EC50,[1]; [4],0.012 µM
same,CC50 at 3 days,[2],> 50 µM
same,HLM Metabolism t1/2,[3],0.835 h
"CC(c1ccc(C(C)(C)O)nc1)N1C[C@@H](C)n2nc3c(c2C1=O)CN(C(=O)c1ccc(Cl)c(C(F)(F)F)n1)[C@H](C)C3 (single isomer, unassigned) [Compound 62A, (3R,7R)-2-(5-chloro-6-(trifluoromethyl)picolinoyl)-9-((R*)-1-(6-(2-hydroxypropan-2-yl)pyridin-3-yl)ethyl)-3,7-dimethyl-1,2,3,4,8,9-hexahydropyrido[4′,3′:3,4]pyrazolo[1,5-a]pyrazin-10(7H)-one]",EC50,[1],0.61 µM
same,CC50 at 3 days,[2],> 50 µM
same,half-life at 1 μM,[3],> 3 h
"Cc1nnn(-c2ccc(C(C)N3C[C@@H](C)n4nc5c(c4C3=O)CN(C(=O)c3ccc(Cl)c(Cl)c3)[C@H](C)C5)cn2)n1 (single isomer, unassigned) [Compound 26A, (3R,7R)-2-(3,4-dichlorobenzoyl)-3,7-dimethyl-9-((R*)-1-(6-(5-methyl-2H-tetrazol-2-yl)pyridin-3-yl)ethyl)-1,2,3,4,8,9-hexahydropyrido[4′,3′:3,4]pyrazolo[1,5-a]pyrazin-10(7H)-one]",EC50,[1],0.14 µM
same,CC50 at 3 days,[2],> 50 µM
same,half-life at 1 μM,[3],1.38 h
"CC(c1cnc(NC2CC2)nc1)N1C[C@@H](C)n2nc3c(c2C1=O)CN(C(=O)c1ccc(Cl)c(Cl)c1)[C@H](C)C3 (single isomer, unassigned) [Compound 37A, (3R,7R)-9-((R*)-1-(2-(cyclopropylamino)pyrimidin-5-yl)ethyl)-2-(3,4-dichlorobenzoyl)-3,7-dimethyl-1,2,3,4,8,9-hexahydropyrido[4′,3′:3,4]pyrazolo[1,5-a]pyrazin-10(7H)-one]",EC50,[1],0.15 µM
same,CC50 at 3 days,[2],> 50 µM
same,HLM Metabolism t1/2,[3],>3 h
"CC(c1ccc(C(C)(C)O)nc1)N1C[C@@H](C)n2nc3c(c2C1=O)CN(C(=O)c1ccc(Cl)c(F)c1F)[C@H](C)C3 (single isomer, unassigned) [Compound 61A, (3R,7R)-2-(4-chloro-2,3-difluorobenzoyl)-9-((R*)-1-(6-(2-hydroxypropan-2-yl)pyridin-3-yl)ethyl)-3,7-dimethyl-1,2,3,4,8,9-hexahydropyrido[4′,3′:3,4]pyrazolo[1,5-a]pyrazin-10(7H)-one]",EC50,[1],2.34 µM
same,CC50 at 3 days,[2],> 50 µM
same,half-life at 1 μM,[3],> 3 h
"C[C@@H]1Cc2nn3c(c2CN1C(=O)c1ccc(Cl)c(Cl)c1)C(=O)N([C@H](C)c1ccc([S@@](C)(=N)=O)cc1)C[C@H]3C (relative stereo) [Compound 18B, (3R,7R)-2-(3,4-dichlorobenzoyl)-3,7-dimethyl-9-((R*)-1-(4-((S*)—S-methylsulfonimidoyl)phenyl)ethyl)-1,2,3,4,8,9-hexahydropyrido[4′,3′:3,4]pyrazolo[1,5-a]pyrazin-10(7H)-one]",EC50,[1]; [4],0.031 µM
same,CC50 at 3 days,[2],> 50 µM
same,half-life at 1 μM,[3],> 3 h
"CC(c1cnc(C(C)(C)O)nc1)N1C[C@@H](C)n2nc3c(c2C1=O)CN(C(=O)c1ccc(Cl)c(C(F)(F)F)c1)[C@H](C)C3 (single isomer, unassigned) [Compound 35A, (3R,7R)-2-(4-chloro-3-(trifluoromethyl)benzoyl)-9-((R*)-1-(2-(2-hydroxypropan-2-yl)pyrimidin-5-yl)ethyl)-3,7-dimethyl-1,2,3,4,8,9-hexahydropyrido[4′,3′:3,4]pyrazolo[1,5-a]pyrazin-10(7H)-one]",EC50,[1],0.2 µM
same,CC50 at 3 days,[2],> 50 µM
same,HLM Metabolism t1/2,[3],0.783 h
